Results as given in publication PMC10714399, “Open Source Antibiotics: Simple Diarylimidazoles Are Potent against Methicillin-Resistant Staphylococcus aureus” (ACS Infectious Diseases, 2023).
In brackets after ≈: the same amount, converted by molar mass. Entries after “also recorded” stand apart in the source; their conditions may differ. Like-named read-outs stand apart in the source and are kept apart here.

Experiments:
[1] = Human plasma protein binding (PPB); assay type: in vitro ADME; conditions: human, plasma
[2] = tested on: Staphylococcus aureus NCTC 13373 (mecA-positive; methicillin-resistant); assay: In vitro antibacterial activity, MIC (UCL School of Pharmacy assay), MRSA; assay type: cell-based; conditions: for MIC: Staphylococcus aureus
Summary of the method: (§1)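 Growth inhibition was read as MIC across a two-fold range of 32 down to 0.03 μg/mL in isosensitest broth. Bacteria from overnight plates were set to A600 0.1 in PBS, about 1 × 10^8 CFU/mL, and diluted 1:100 before inoculation.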

[3] = Human liver microsome intrinsic clearance; assay type: in vitro ADME; conditions: human liver microsomes, NEU; for microsomal CLint: read-out: HLM CLint (NEU)
[4] = tested on: Enterococcus faecalis ATCC 51299 (vanA-positive; vancomycin-resistant); assay: In vitro antibacterial activity, MIC (UCL), VRE; assay type: cell-based
Summary of the method: as §1

Aqueous solubility = assay type: physicochemical; conditions: for solubility: thermodynamic from solid
[5] = HEK293 toxicity, 96-well dose-response (UCL; MTT or resazurin, with or without recovery); assay type: cell-based, human; conditions: human, HEK293 cells; read-out: HEK293 CC50
Protocol: (§2) The importance of balancing potency vs MRSA and cytotoxicity led us to examine a subset of compounds more thoroughly for toxicity against human embryonic kidney cell line HEK293. […] Dmax is a parameter that quantifies toxicity at the highest tested concentration (32 μg/mL for all compounds), calculated as reciprocal percentage of viable cells (100 – viability%), where cells either were allowed to recover or viability was measured immediately after treatment. […] Our efforts focused on trying to replicate the original toxicity experiments (by CO-ADD) with tamoxifen using a protocol modified for use with 96-well plates. Given the variability of protocols and results in the literature,[28] it was important to compare with a standard protocol we have reliably used in our own laboratories.[29]−[33] […] Truly “non-toxic” compounds might be expected to show Dmax < 50% for all experiment variations, e.g., 861. […] A large spread of Dmax values comparing recovery and non-recovery conditions larger than 20% is perhaps indicative of a mechanism of toxicity that persists beyond exposure, i.e., cytotoxic compounds that continue to induce toxicity as cells recover and restart dividing, for example, compounds 865, 870, 871, 980, and 981. […] This variability could be driven by interference of the compounds with the fluorescence readout or resorufin build-up as previously described.[27]
(§3) HEK293 cells (ATCC, UK) at passage 32 were a kind gift from Dr. Ben Allsop from the Translational Research Office at University College London. Cells were tested for mycoplasma using a MycoAlert Detection Kit (Lonza, Switzerland) as per manufacturer instructions, frozen stocks were stored in liquid nitrogen, and cells were re-tested whenever a new aliquot was thawed.
(§4) Cells were maintained in DMEM (Sigma-Aldrich, UK) supplemented with 10% heat-inactivated FBS (Sigma-Aldrich, UK), 1% GlutaMax (ThermoFisher, UK), and 1% sodium pyruvate (Lonza, UK) without antibiotics in an incubator at 37 °C and 5% CO2. Media was changed every 2 days, and cells were passaged every 3–4 days at a subcultivation ratio of 1:10, by detaching the cells with phenol-free TrypLE Express (ThermoFisher, UK), after washing with HBSS Ca^2+/Mg^2+ (ThermoFisher, UK). Up to 55 passages were used throughout the experiments.
(§5) (a) Cell seeding: At subculture, a dilute solution of cells was counted using Trypan Blue (Sigma-Aldrich, UK) and a hemocytometer. Cells were further diluted to 7000 or 50 000 cells/mL for experiments.
(§6) For recovery experiments, 700 cells (100 μL) were seeded in 96-well plates and incubated for 48 h while cells reached exponential phase.
(§7) For non-recovery experiments, 5000 cells (100 μL) were seeded in 96-well plates and incubated for 48 h while cells reached confluence. This is the same number of cells as per the CO-ADD protocol where 384-well plates were used, but we extended the growth time to 48 h to produce a similar confluency.
(§8) Stock solutions were diluted 100 times (to 1% DMSO) to 32 μg/mL in full medium (vortexed briefly) and then serially diluted using a digital pipet (Explorer, Eppendorf, Germany) at a dilution factor of 2 to a final concentration of […].
(§9) (c) Dosing experiments: At the specified time after seeding, media was removed from cells, cells were washed with HBSS Ca^2+/Mg^2+ (100 μL), and 100 μL of diluted compounds were added as per Supporting Information - Biology, Figure S4, and incubated for 24 h.
(§10) After treatment, solutions were removed, and cells were washed with HBSS Ca^2+/Mg^2+. For non-recovery experiments, viability was determined immediately as described below.
(§11) For recovery experiments, fresh media was added to plates (100 μL) and cells were returned to the incubator for another 72 h, after which viability was recorded as described below.
(§12) i. MTT assay: 3-[4,5-Dimethylthiazol-2-yl]-2,5-diphenyltetrazolium bromide (MTT) (Sigma-Aldrich, UK) was dissolved in sterile PBS at 5 mg/mL with sonication (20 min), protected from light. […]

LogD7.4 (Chrom Log D) = assay type: physicochemical; conditions: chromatographic system (Chrom Log D); pH 7.4, NEU; read-out: LogD 7.4 (NEU)
Excerpt: To guide our initial SAR exploration work, we obtained liver microsomal intrinsic clearance data for 5 of the 18 compounds assayed by CO-ADD (Supporting Information - CDCO Report and Supporting Information - Biology). We then acquired intrinsic clearance (CLint), plasma protein binding (PPB), and solubility data on further compounds throughout the SAR campaign (Supporting Information - Biology, Tables S3 and S4). […] The more polar compounds (lower LogD) had reduced PPB and were more metabolically stable.
Table S4. ADME and Pharmacokinetics: compounds only appearing in the Supplementary […]
MRSA Aqueous HLM CLint Rat Hep CLint
Cmpd MIC Solubility Human PPB (%) (µL/min/mg (µL/min/10x6 LogD7.4
(µg/mL) (µM) protein) cells)
(§13) ADME and toxicity for compounds were measured according to procedures outlined in the manuscript submitted in parallel to this one;2 other procedures were used for those compounds analysed by Monash University (in vitro ADME) or UCL (toxicity), both described in the main

[6] = Rat hepatocyte intrinsic clearance; assay type: in vitro ADME
[7] = tested on: S. aureus ATCC 25923 (methicillin-susceptible); assay: In vitro antibacterial activity, MIC (UCL), MSSA; assay type: cell-based, Staphylococcus aureus; conditions: for MIC: Staphylococcus aureus
Summary of the method: as §1

HEK293 cells = assay: HEK293 toxicity, 96-well dose-response (UCL; MTT or resazurin, with or without recovery); assay type: cell-based, human; conditions: for spread of Dmax values comparing recovery and non-recovery conditions: 32 μg/mL
Protocol: as §2, §3, §4, §5, §6, §7, §8, §9, §10, §11, §12

[8] = tested on: PMM (primary mouse macrophages); assay: Toxicity against PMM; assay type: cell-based
Protocol: as §13

[9] = tested on: MRC-5SV2 (human lung fibroblast cell line); assay: Toxicity against MRC-5SV2; assay type: cell-based
Protocol: as §13

[10] = human plasma, NEU, read-out: Human PPB (NEU) (converted)
[11] = NEU, read-out: Aqueous Solubility (NEU)
[12] = rat hepatocytes, NEU, read-out: Rat Hep CLint (NEU)
[13] = read-out: Human PPB (converted)
[14] = rat, hepatocytes, Figure 4, read-out: Rat Hep CLint

Structure (SMILES) | fraction unbound [1, 10] | MIC ([2]; UCL, read-out: MRSA MIC (UCL)) | microsomal CLint [3] | MIC ([4]; read-out: VRE MIC (UCL)) | solubility (Aqueous solubility; [11]) | CC50 at 24 h [5] | chromatographic logD (LogD7.4 (Chrom Log D)) | hepatocyte CLint [6, 12] | MIC ([2]; read-out: MRSA MIC) | MIC ([4]; read-out: VRE MIC) | spread of Dmax values comparing recovery and non-recovery conditions (HEK293 cells) | PMM TC50 [8] | MRC5 TC50 [9] | further results
c1cncc(-c2nc3n(c2-c2ccc4occc4c2)CCC3)c1 [OSA_000861] | 0.015 | > 32 µg/mL | 35.5 µL/min/mg | > 32 µg/mL | 344 µM (≈ 104 µg/mL) | > 32 µg/mL | 3.2 | 40.8 µL/min/1e6 cells |  |  |  |  |  | 
c1cc(-c2nc3n(c2-c2ccc4occc4c2)CCC3)ccn1 [OSA_000862] | 0.017 | > 32 µg/mL | 36.8 µL/min/mg | > 32 µg/mL | 89 µM (≈ 26.8 µg/mL) | > 32 µg/mL | 3.2 | 44.5 µL/min/1e6 cells |  |  |  |  |  | 
Cc1ccc(-c2c(-c3ccccn3)nc3n2CCC3)cc1 [OSA_000865] | 0.084 | 4 µg/mL (≈ 14.5 µM) |  | 16 µg/mL (≈ 58.1 µM) |  | 2.1 µg/mL (≈ 7.63 µM) |  |  |  |  |  |  |  | HLM CLint (NEU) [3]: 82 uL/min/mg protein; Aqueous Solubility (NEU) (Aqueous solubility; NEU): 32 µM; MIC ([7]; read-out: MSSA MIC (UCL)): 1 µg/mL (≈ 3.63 µM); Rat Hep CLint (NEU) ([6]; rat hepatocytes, NEU): 49.2 uL/min/10x6 cells
c1ccc(-c2nc3n(c2-c2ccc4occc4c2)CCC3)cc1 [OSA_000869] | 0.0031 | > 32 µg/mL | 224 µL/min/mg | > 32 µg/mL | 21 µM (≈ 6.31 µg/mL) | 13.7 µg/mL (≈ 45.6 µM) | 4.2 | 34.5 µL/min/1e6 cells |  |  |  |  |  | 
c1ccc(-c2c(-c3ccccn3)nc3n2CCC3)cc1 [OSA_000870] | 0.15 | 32 µg/mL (≈ 122 µM) |  | > 32 µg/mL | 179 µM (≈ 46.8 µg/mL) | 3.6 µg/mL (≈ 13.8 µM) |  |  |  |  |  |  |  | HLM CLint (NEU) [3]: 64 uL/min/mg protein; Rat Hep CLint (NEU) ([6]; rat hepatocytes, NEU): 25.9 uL/min/10x6 cells
c1ccc(-c2nc3ccccn3c2-c2ccc3sccc3c2)nc1 [OSA_000871] | 0.0074 | 4 µg/mL (≈ 12.2 µM) | 105 µL/min/mg | 8 µg/mL (≈ 24.4 µM) | 6 µM (≈ 1.96 µg/mL) | 5.5 µg/mL (≈ 16.8 µM) | 3.3 | > 300 µL/min/1e6 cells |  |  |  |  |  | 
c1cncc(-c2nc3n(c2-c2ccc4occc4c2)CCC3)c1 [compound 861] |  |  |  |  |  |  |  |  | > 32 µg/mL | > 32 µg/mL |  |  |  | activity against MRSA, in words [2]: inactive; HEK293 toxicity classification, in words (HEK293 cells): least toxic; Dmax (100 – viability%) (HEK293 cells; at highest tested concentration 32 μg/mL, all experiment variations): < 50%
c1cc(-c2nc3n(c2-c2ccc4occc4c2)CCC3)ccn1 [compound 862] |  |  |  |  |  |  |  |  | > 32 µg/mL | > 32 µg/mL |  |  |  | activity against MRSA, in words [2]: inactive; HEK293 toxicity classification, in words (HEK293 cells): least toxic; also recorded: non-toxic; toxicity in the acute exposure by MTT (HEK293 cells; no recovery, MTT): more than 50%
c1ccc(-c2nc3n(c2-c2ccc4occc4c2)CCC3)cc1 [compound 869] |  |  |  |  |  |  |  |  | > 32 µg/mL | > 32 µg/mL | small difference |  |  | activity against MRSA, in words [2]: inactive; HEK293 toxicity classification, in words (HEK293 cells): least toxic
Fc1ccc(N(CC2CC2)c2c(-c3ccccn3)nc3ccccn23)cc1 [compound 979] |  |  |  |  |  |  |  |  | 2 µg/mL (≈ 5.58 µM) | 4 µg/mL (≈ 11.2 µM) | small difference | 1.4 µg/mL | 2.8 µg/mL | VRE MIC [4]: 4 µg/mL; MIC ([7]; read-out: MSSA MIC): 2 µg/mL (≈ 5.58 µM)
CCCN(c1ccc(F)cc1)c1c(-c2ccccn2)nc2ccccn12 [compound 982] |  |  |  |  |  |  |  |  | 2 µg/mL (≈ 5.77 µM) | 4 µg/mL (≈ 11.5 µM) | small difference | 0.7 µg/mL | 1.5 µg/mL | fraction unbound [1, 13]: 0.007; MIC ([2]; 16 h, read-out: MRSA MIC): 2 µg/mL (≈ 5.77 µM); VRE MIC [4]: 4 µg/mL; solubility (Aqueous solubility; read-out: Aqueous Solubility): 3 µM (≈ 1.04 µg/mL); MIC ([7]; read-out: MSSA MIC): 2 µg/mL (≈ 5.77 µM); hepatocyte CLint [6, 14]: 108 µL/min/1e6 cells
CC(C)CN(c1ccc(F)cc1)c1c(-c2ccccn2)nc2ccccn12 [compound 983] |  |  |  |  |  |  |  |  | 2 µg/mL (≈ 5.55 µM) | 8 µg/mL (≈ 22.2 µM) | small difference | 8.3 µg/mL | 19.5 µg/mL | fraction unbound [1, 13]: 0.004; MIC ([2]; 16 h, read-out: MRSA MIC): 2 µg/mL (≈ 5.55 µM); solubility (Aqueous solubility; read-out: Aqueous Solubility): 8 µM (≈ 2.88 µg/mL); MIC ([7]; read-out: MSSA MIC): 4 µg/mL (≈ 11.1 µM); hepatocyte CLint [6, 14]: 234 µL/min/1e6 cells
Fc1ccc(Nc2c(-c3ccccn3)nc3sccn23)cc1 [compound 984] |  |  |  |  |  |  |  |  |  |  | small difference | 9.9 µg/mL | 2.0 µg/mL | MRSA MIC [2]: 8 µg/mL; VRE MIC [4]: 8 µg/mL; MSSA MIC [7]: 4 µg/mL
